Our source for the IC (maximum) values is patent US5057521A, “Use of bicyclic imidazole compounds for the treatment of hyperaldosteronism” (Ciba-Geigy Corporation, priority 1988, dated 1991).

In the assay the test system is adrenocortical cells prepared from an adrenoma of a patient suffering from Conn's syndrome. The experiment in a line: cells. Particulars: Homo sapiens, read-out: concentration effecting maximum inhibition of aldosterone secretion stimulated by angiotensin II.

On to `N#Cc1ccc(C2CCCc3cncn32)cc1` (racemic) [5-(p-cyanophenyl)-5,6,7,8-tetrahydroimidazo[1,5-a]pyridine], for which the IC (maximum) was determined as 0.1 µM.
